Measured values reported in patent US12410160B2 (Gilead Sciences, Inc., priority 2021, dated 2025).
Like-named read-outs stand apart in the source and are kept apart here.

Tests used:
[1] = pKa analysis by capillary electrophoresis (pKa PRO Analyzer, co-solvent method); type: physicochemical; details: co-solvent method (60% to 30% methanol buffers); for pKa: methanol/aqueous co-solvent buffers
Experimental: The 10 mM DMSO stock solutions of test articles (TAs) were diluted 100-fold with either 2 mM HCl or 2 mM NaOH and methanol. The final concentration of methanol was 60%, TA concentration was 100 μM, and DMSO concentration was 1%. The TAs were transferred into 24 consecutive wells of a 96-well plate for analysis using the co-solvent method. […] All data was obtained using a pKa. PRO Analyzer (AATI, Ankey, IA) by performing four consecutive CE runs from 60% to 30% co-solvent buffers. Norfloxacin was used as a daily performance-indicating standard. The pKa values were predicted by using pKa. Estimator® software (AATI, Ankey, IA) by relating molecular weight of the TA to its mobility.

[2] = target: KHK-C expressed in NRK-52E cells (Homo sapiens (Human), UniProt P50053); assay: KHK-C Cell-based Assay (EC50), NRK CTG, fructose-mediated ATP-depletion
Sequence of KHK-C expressed in NRK-52E cells (P50053 whole entry): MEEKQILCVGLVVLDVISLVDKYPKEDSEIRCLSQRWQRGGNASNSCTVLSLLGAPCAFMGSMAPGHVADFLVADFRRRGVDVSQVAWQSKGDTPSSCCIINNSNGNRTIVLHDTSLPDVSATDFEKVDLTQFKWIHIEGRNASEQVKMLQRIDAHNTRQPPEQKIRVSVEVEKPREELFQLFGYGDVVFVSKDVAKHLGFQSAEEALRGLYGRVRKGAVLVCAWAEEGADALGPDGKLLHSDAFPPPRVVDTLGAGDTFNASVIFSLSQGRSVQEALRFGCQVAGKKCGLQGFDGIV

HepG2 cells = assay: F1P Cell-Based Assay (EC50), 13C6-fructose-1-phosphate in HepG2 cells (cell culture medium or 50% human plasma); details: Homo sapiens
human KHK-A = human KHK-A (Homo sapiens (Human), UniProt P50053); assay: KHK Biochemical Assay (IC50), ADP-Glo, KHK-A; details: average of at least two separate assays
Sequence of human KHK-A (P50053 other isoform, or with tags, fused parts or gaps): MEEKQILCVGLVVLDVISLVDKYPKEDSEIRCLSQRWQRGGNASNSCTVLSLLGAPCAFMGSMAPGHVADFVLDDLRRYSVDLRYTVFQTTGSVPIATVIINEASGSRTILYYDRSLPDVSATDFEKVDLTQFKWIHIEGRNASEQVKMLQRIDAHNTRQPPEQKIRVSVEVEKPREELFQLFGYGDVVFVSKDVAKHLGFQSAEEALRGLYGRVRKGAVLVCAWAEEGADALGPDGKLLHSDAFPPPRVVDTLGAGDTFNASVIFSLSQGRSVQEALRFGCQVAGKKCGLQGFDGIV
How it was run: (§1)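 Luminescent ADP-Glo read-out of ADP made by His-tagged KHK (BL21 (DE3) expression, Ni-NTA). Enzyme and compound sat together 30 min before ATP/fructose addition, then reacted 4 h at RT in Hepes pH 7.4 buffer with KCl, MgCl2, Triton-X. Quench 1 h, detection 1 h.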

human KHK-C = human KHK-C (Homo sapiens (Human), UniProt P50053); assay: KHK Biochemical Assay (IC50), ADP-Glo, KHK-C; details: average of at least two separate assays
Sequence of human KHK-C (P50053 whole entry): as the sequence (P50053 whole entry) above
How it was run: as §1

[3] = pH range 1.7-11.2, read-out: 1st pKa
[4] = HepG2, HepG2 cells, 50% human plasma, read-out: F1P 50% HP EC50
[5] = HepG2, read-out: F1P 10% FBS EC50, HepG2 cells, cell culture medium (10% FBS)
[6] = pH range 1.7-11.2, read-out: 2nd pKa

Row | pKa [1, 3] | EC50 [2] | EC50 (HepG2 cells; [4]) | EC50 (HepG2 cells; [5]) | IC50 (human KHK-A; ADP-Glo) | IC50 (human KHK-C; ADP-Glo) | pKa [1, 6] | IC50 (human KHK-A) | IC50 (human KHK-C) | 1st pKa ([1]; pH range 1.7-11.2) | EC50 ([2]; read-out: NRK CTG EC50, NRK-52E cells, Cell-Titer Glo, 25 mM fructose, 48 hours) | Compound
1 | 4.9 | 54.5 nM | 88.8 nM | 52.7 nM | 24.1 nM | 4.6 nM | – | – | – | – | – | C[C@H]1[C@H](O)CN1c1nc(-c2ccc([C@]3(N)CCS(=O)(=O)C3)cc2)c2c(n1)C(F)(F)CC2 (single isomer, unassigned) [Example 795]
2 | 3.77 | 89.4 nM | – | – | 34 nM | 40.8 nM | – | – | – | – | – | C[C@H]1CCN1c1nc2c(c(-c3ccns3)n1)CCC2 [Example 13, (S)-5-(2-(2-methylazetidin-1-yl)-6,7-dihydro-5H-cyclopenta[d]pyrimidin-4-yl)isothiazole]
3 | 4.52 | 144 nM | – | – | 55.1 nM | 73.1 nM | – | – | – | – | – | C[C@H]1CCN1c1nc2c(c(-c3cc[nH]n3)n1)CCC2 [Example 18, (S)-2-(2-methylazetidin-1-yl)-4-(1H-pyrazol-3-yl)-6,7-dihydro-5H-cyclopenta[d]pyrimidine]
4 | 2.86 | 288 nM | – | – | 147 nM | 99.1 nM | 4.74 | – | – | – | – | C[C@H]1CCN1c1nc2c(c(-c3ccncc3)n1)CCC2 [Example 22, (S)-2-(2-methylazetidin-1-yl)-4-(pyridin-4-yl)-6,7-dihydro-5H-cyclopenta[d]pyrimidine]
5 | 4.97 | 197 nM | – | – | 68.9 nM | 66.5 nM | – | – | – | – | – | C[C@H]1CCN1c1nc2c(c(-c3cnn(C)c3)n1)CCC2 [Example 23, (S)-4-(1-methyl-1H-pyrazol-4-yl)-2-(2-methylazetidin-1-yl)-6,7-dihydro-5H-cyclopenta[d]pyrimidine]
6 | 3.68 | 87.3 nM | – | – | 29.3 nM | 24.1 nM | 5.35 | – | – | – | – | C[C@H]1CCN1c1nc2c(c(-c3cn4ccnc4s3)n1)CCC2 [Example 121, (S)-2-(2-(2-methylazetidin-1-yl)-6,7-dihydro-5H-cyclopenta[d]pyrimidin-4-yl)imidazo[2,1-b]thiazole]
7 | 4.25 | 10.9 nM | – | – | 6 nM | 2.6 nM | 6.48 | – | – | – | – | C[C@H]1CCN1c1nc2c(c(-c3ccc(C4(N)COC4)cc3)n1)CCC2 [Example 131, (S)-3-(4-(2-(2-methylazetidin-1-yl)-6,7-dihydro-5H-cyclopenta[d]pyrimidin-4-yl)phenyl)oxetan-3-amine]
8 | 3.59 | 35.3 nM | – | – | 12.3 nM | 18.7 nM | 6.43 | – | – | – | – | C[C@H]1CCN1c1nc2c(c(-c3ccc4c(N)nc(N)nc4c3)n1)CCC2 [Example 147, (S)-7-(2-(2-methylazetidin-1-yl)-6,7-dihydro-5H-cyclopenta[d]pyrimidin-4-yl)quinazoline-2,4-diamine]
9 | 4.25 | 6.2 nM | – | – | 2.6 nM | 1.4 nM | 8.01 | – | – | – | – | C[C@H]1CCN1c1nc2c(c(-c3ccc(C4(N)CC4)cc3)n1)CCC2 [Example 295, (S)-1-(4-(2-(2-methylazetidin-1-yl)-6,7-dihydro-5H-cyclopenta[d]pyrimidin-4-yl)phenyl)cyclopropan-1-amine]
10 | 4.12 | 339 nM | – | – | 24.5 nM | 18.5 nM | 9.27 | – | – | – | – | C[C@H]1CCN1c1nc2c(c(-c3cccc(CN)c3)n1)CCC2 [Example 329, [3-[2-[(2S)-2-methylazetidin-1-yl]-6,7-dihydro-5H-cyclopenta[d]pyrimidin-4-yl]phenyl]methanamine]
11 | 3.69 | 17.1 nM | – | – | 22.7 nM | 23.8 nM | 9.16 | – | – | – | – | C[C@H]1CCN1c1nc2c(c(-c3cccc(CN4CCC4)c3)n1)CCC2 [Example 347, 4-[3-(azetidin-1-ylmethyl)phenyl]-2-[(2S)-2-methylazetidin-1-yl]-6,7-dihydro-5H-cyclopenta[d]pyrimidine]
12 | 4.21 | 75.7 nM | – | – | 13 nM | 7.9 nM | 9.04 | – | – | – | – | C[C@H]1CCN1c1nc2c(c(-c3ccc4cnc(O)cc4c3)n1)CCC2 [Example 380, 6-[2-[(2S)-2-methylazetidin-1-yl]-6,7-dihydro-5H-cyclopenta[d]pyrimidin-4-yl]isoquinolin-3-ol]
13 | 4.12 | > 5000 nM | – | – | 18.9 nM | 89.7 nM | 8.07 | – | – | – | – | C[C@H]1CCN1c1nc2c(c(-c3ccc4c(O)nc(O)cc4c3)n1)CCC2 [Example 381, 6-[2-[(2S)-2-methylazetidin-1-yl]-6,7-dihydro-5H-cyclopenta[d]pyrimidin-4-yl]isoquinoline-1,3-diol]
14 | 4.66 | 23.6 nM | – | – | – | – | 11.2 | 10.9 nM | 5.2 nM | – | – | C[C@H]1CCN1c1nc2c(c(-c3ccc(CNS(C)(=O)=O)s3)n1)CCC2 [Example 460, N-[[5-[2-[(2S)-2-methylazetidin-1-yl]-6,7-dihydro-5H-cyclopenta[d]pyrimidin-4-yl]-2-thienyl]methyl]methanesulfonamide]
15 | 3.9 | 116 nM | – | – | – | – | – | – | 17.2 nM | – | – | C[C@H]1CCN1c1nc2c(c(-c3cn(C4CNC4)nn3)n1)CCC2 [Example 461, (S)-4-(1-(azetidin-3-yl)-1H-1,2,3-triazol-4-yl)-2-(2-methylazetidin-1-yl)-6,7-dihydro-5H-cyclopenta[d]pyrimidine]
16 | 8.2 | 225 nM | – | – | – | – | – | – | – | – | – | C[C@H]1[C@H](O)CN1c1nc(-c2cn(C3CNC3)nn2)c2c(n1)C(F)(F)CC2 [Example 647, (2S,3R)-1-[4-[1-(azetidin-3-yl)triazol-4-yl]-7,7-difluoro-5,6-dihydrocyclopenta[d]pyrimidin-2-yl]-2-methyl-azetidin-3-ol]
17 | 4.2 | 14.6 nM | 11.7 nM | – | – | – | – | – | 1.9 nM | – | – | C[C@H]1CCN1c1nc2c(c(-c3ccc4c(c3)OCC4N)n1)CCC2 (stereo partly drawn) [Example 754, 6-[2-[(2S)-2-methylazetidin-1-yl]-6,7-dihydro-5H-cyclopenta[d]pyrimidin-4-yl]-2,3-dihydrobenzofuran-3-amine]
18 | 7.1 | 37 nM | – | – | – | – | – | – | 30.1 nM | – | – | C[C@H]1CCN1c1nc2c(c(-c3ccc(C4COCCN4)cc3)n1)CCC2 (stereo partly drawn) [Example 755, 3-[4-[2-[(2S)-2-methylazetidin-1-yl]-6,7-dihydro-5H-cyclopenta[d]pyrimidin-4-yl]phenyl]morpholine]
19 | 4.2 | 32.1 nM | – | – | – | – | – | – | 18.7 nM | – | – | C[C@H]1CCN1c1nc2c(c(-c3ccc(C(N)CS(C)(=O)=O)cc3)n1)CCC2 (stereo partly drawn) [Example 768, 1-(4-(2-((S)-2-methylazetidin-1-yl)-6,7-dihydro-5H-cyclopenta[d]pyrimidin-4-yl)phenyl)-2-(methylsulfonyl)ethan-1-amine]
20 | 6.3 | – | 24.6 nM | 12.7 nM | – | – | – | 8.6 nM | 2.3 nM | – | – | C[C@H]1[C@H](F)CN1c1nc(-c2ccc(C(N)CS(C)(=O)=O)cc2)c2c(n1)C(F)(F)CC2 (stereo partly drawn) [Example 773, 1-(4-(7,7-difluoro-2-((2S,3R)-3-fluoro-2-methylazetidin-1-yl)-6,7-dihydro-5H-cyclopenta[d]pyrimidin-4-yl)phenyl)-2-(methylsulfonyl)ethan-1-amine]
21 | 6.7 | – | 19 nM | 15.7 nM | – | – | – | – | 1.8 nM | – | – | C[C@H]1[C@H](O)CN1c1nc(-c2ccc(C3(C#N)CNC3)cc2)c2c(n1)C(F)(F)CC2 [Example 777, 3-(4-(7,7-difluoro-2-((2S,3R)-3-hydroxy-2-methylazetidin-1-yl)-6,7-dihydro-5H-cyclopenta[d]pyrimidin-4-yl)phenyl)azetidine-3-carbonitrile]
22 | – | – | – | – | 7.3 nM | 0.2 nM | – | – | – | 4.7 | 16.4 nM | C[C@H]1[C@H](F)CN1c1nc(-c2ccc([C@]3(N)C[S@@](=N)(=O)C3)cc2)c2c(n1)C(F)(F)CC2 [Example 797, (1R,3s)-3-amino-3-(4-(7,7-difluoro-2-((2S,3R)-3-fluoro-2-methylazetidin-1-yl)-6,7-dihydro-5H-cyclopenta[d]pyrimidin-4-yl)phenyl)-1-imino-1λ^6-thietane 1-oxide]
23 | 6 | – | 65.2 nM | 25.2 nM | – | 7.5 nM | – | – | – | – | – | C[C@H]1[C@H](O)CN1c1nc(-c2ccc3c(c2)CCNC3C(F)F)c2c(n1)C(F)(F)CC2 (stereo partly drawn) [Example 835, (2S,3R)-1-(4-(1-(difluoromethyl)-1,2,3,4-tetrahydroisoquinolin-6-yl)-7,7-difluoro-6,7-dihydro-5H-cyclopenta[d]pyrimidin-2-yl)-2-methylazetidin-3-ol]
